Each structure is given as a SMILES string. Entries after “also recorded” stand apart in the source; their conditions may differ.

In test [1] the test system is BKS Cg-Lepr db/Lepr db mice. The experiment in a line: Hypoglycemic effect in NIDDM mice. It is filed as in vivo, mouse. As to conditions: oral daily 14 days (RAP4 2000 mg/kg, metformin 300 mg/kg), day 14 post dosing. The method, then: Male non-insulin dependent diabetic mellitus (NIDDM) mice (BKS Cg-Lepr db/Lepr db) weighing 50+/−5 g were used at age of 12-13 weeks. A daily oral dose of 2000 mg/kg of RAP4 corresponding to corresponding to 112 μg/kg of Ribetril A and 492 μg/kg total Ribetrils as well as 240 μg/kg total Glucoindols was administered orally at a dosing volume of 10 mL/kg to 12 animals for a total of 14 consecutive days. The positive control of metformin (300 mg/kg) and vehicle (2% Tween 80) were each administered orally at a dosing volume of 10 mL/kg to groups of 6 animals once daily for a total of 14 consecutive days. Serum glucose levels were measured by means of an automated analyzer (TBA-120FR, Toshiba) and serum insulin by ELISA at zero min (pre-treatment) on Day 1, and at 90 min after the daily dosing (post-treatment) on Day 7 and Day 14.

Test [2] has as its system hyperlipidemic guinea pigs. Kind of test: Hypocholesterolemic effect in guinea pigs on high fat diet. Format: in vivo, guinea pig. The conditions noted are these: 10 mg/kg oral daily, 28 days. As for the experimental part: Male Dunkin-Hartley guinea pigs weighing 300+/−30 g were acclimated one week before the in-life phase of the experiment. The study diet (Research Diets Inc, New Brunswick, N.J., USA) contained 15% corn oil and 0.25% cholesterol. A daily oral dose of 2000 mg/kg of RAP2 corresponding 9 μg/kg of Ribetril A and 82 μg/kg total Ribetrils as well as 632 μg/kg total Glucoindols was administered orally at a dosing volume of 10 mL/kg. A daily oral dose of 2000 mg/kg of RAP4 corresponding to 112 μg/kg of Ribetril A and 492 μg/kg total Ribetrils as well as 240 μg/kg total Glucoindols was administered orally at a dosing volume of 10 mL/kg. The positive control atorvastatin (10 mg/kg) and vehicle (0.5% methylcellulose) were each administered orally at a dosing volume of 10 mL/kg. […]
After fasting overnight, blood samples were obtained from the retro-orbital sinus of each animal 5 min before initial test substance and/or vehicle administration (pre-treatment) and 24 hours after dosing on days 14 and 28 (post-treatment). The serum total cholesterol (TC), low density lipoprotein cholesterol (LDL-C), high density lipoprotein cholesterol (HDL-C) and triglycerides (TG) were determined by an enzymatic method (Wako total cholesterol, LDL-C, HDL-C & TG diagnostic kit and Toshiba Automatic Analyzer Model TAB-120FR).

A further test has as its target T1, PDE5A (Homo sapiens, UniProt O76074).
T1 construct: purchased BSP Bioscience 60350
The experiment in a line: PDE5A Assay Kit, fluorescence polarization. It is filed as biochemical. The conditions noted are these: PDE5. The method, then:
Inhibition of PDE5 blocks hydrolysis of cGMP, thereby increasing levels of cGMP. The PDE5A Assay Kit is designed for identification of PDE5A inhibitors using fluorescence polarization. The assay is based on the binding of a fluorescent nucleotide monophosphate generated by PDE5A to the binding agent.
The assay was performed according to the protocol of the PDE5A assay provided by BSP Bioscience [BSP Bioscience, Data sheet PDE5A Assay Kit, Catalog #60350].
(§1) A fluorescence plate reader (Appliskan, Thermo Scientific) was used to detect fluorescence emission signals according to the following parameters:
Test Compounds • Selected alkaloids of the invention prepared in example 1 were tested in 5 times dilutions to establish the 50% inhibitory concentration (IC-50).

The target of the next test is T2, PDE4A1A (Homo sapiens, UniProt P27815).
T2 construct: purchased BSP Bioscience 60340
The experiment in a line: PDE4A1A Assay Kit, fluorescence polarization. Format: biochemical. The conditions noted are these: PDE4. The method, then: Inhibition of PDE4 blocks hydrolysis of cAMP, thereby increasing levels of cAMP. The PDE4A1A Assay Kit is designed for identification of PDE4A1A inhibitors using fluorescence polarization. The assay is based on the binding of fluorescent AMP generated by PDE4A1A to the binding agent.
The assay was performed according to the protocol of the PDE4A1A assay provided by BSP Bioscience [BSP Bioscience, Data sheet PDE4A1A Assay Kit, Catalog #60340].
as §1
(§2) Selected alkaloids of the invention prepared in example 1 were tested in 5 times dilutions to establish the 50% inhibitory concentration (IC-50).
Background: Fluorescence polarisation rises when a labelled molecule tumbles more slowly, as on binding a larger partner.

A further test addresses T3, IkappaB kinase β (IKK-β) (Homo sapiens, UniProt O14920).
T3 construct: purchased Invitrogen
T3 sequence (O14920 1-756): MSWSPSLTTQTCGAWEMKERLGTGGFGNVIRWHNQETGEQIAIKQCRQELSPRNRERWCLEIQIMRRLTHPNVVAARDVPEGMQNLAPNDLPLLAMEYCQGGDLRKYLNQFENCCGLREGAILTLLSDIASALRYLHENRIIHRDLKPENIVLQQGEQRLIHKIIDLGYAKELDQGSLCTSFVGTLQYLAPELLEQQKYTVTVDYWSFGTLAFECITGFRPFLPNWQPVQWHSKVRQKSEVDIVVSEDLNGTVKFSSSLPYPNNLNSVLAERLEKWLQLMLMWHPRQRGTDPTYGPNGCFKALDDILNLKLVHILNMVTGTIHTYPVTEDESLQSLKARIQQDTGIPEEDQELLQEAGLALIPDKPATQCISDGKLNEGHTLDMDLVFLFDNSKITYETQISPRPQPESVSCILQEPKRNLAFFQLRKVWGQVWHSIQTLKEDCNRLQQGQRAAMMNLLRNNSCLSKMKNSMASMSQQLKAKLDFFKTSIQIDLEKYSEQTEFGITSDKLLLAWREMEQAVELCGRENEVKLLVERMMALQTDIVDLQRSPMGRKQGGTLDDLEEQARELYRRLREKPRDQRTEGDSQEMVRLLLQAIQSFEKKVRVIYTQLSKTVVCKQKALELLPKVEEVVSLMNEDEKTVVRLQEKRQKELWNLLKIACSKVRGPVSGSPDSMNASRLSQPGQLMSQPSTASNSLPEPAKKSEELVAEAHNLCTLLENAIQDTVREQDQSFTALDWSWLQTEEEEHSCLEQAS
The experiment in a line: IKK-β inhibition, Z'-LYTE Kinase Assay Kit-Ser/Thr 5 Peptide (FRET). Format: biochemical. The method, then:
IKK-β phosphorylates the inhibitory IκB protein associated with NE-κB. Phosphorylation results in the dissociation of IκB from NE-κB, allowing NE-κB to migrate into the cell nucleus where it can activate the transcription of at least 150 genes. The Z9-LYTE™ Kinase Assay Kit-Ser/Thr 5 Peptide is designed to screen for potential IKK-β inhibitory effect using fluorescence resonance energy transfer (FRET) between coumarin and fluorescein for detection by a fluorometer.
The assay was performed according to Z9-LYTE™ KINASE ASSAY KIT-SER/THR 5 PEPTIDE protocol provided by Invitrogen [Invitrogen, Z′-LYTE™ Kinase Assay Kit-Ser/Thr 5 Peptide Protocol, O-062187-r1 US 0405]. Based on the IKK-β certificate of the kit, a kinase concentration of 500 ng/ml was chosen. Km for ATP 9.4 μM was chosen according to an optimization for the LanthaScreen™ kinase assay [http://tools.invitrogen.com/content/sfs/manuals/IKBKB_%28IKK_beta%29_LanthaScreen_Activity.pdf].
as §1, §2

T2 sequence (P27815 1-647 isoform P27815-4): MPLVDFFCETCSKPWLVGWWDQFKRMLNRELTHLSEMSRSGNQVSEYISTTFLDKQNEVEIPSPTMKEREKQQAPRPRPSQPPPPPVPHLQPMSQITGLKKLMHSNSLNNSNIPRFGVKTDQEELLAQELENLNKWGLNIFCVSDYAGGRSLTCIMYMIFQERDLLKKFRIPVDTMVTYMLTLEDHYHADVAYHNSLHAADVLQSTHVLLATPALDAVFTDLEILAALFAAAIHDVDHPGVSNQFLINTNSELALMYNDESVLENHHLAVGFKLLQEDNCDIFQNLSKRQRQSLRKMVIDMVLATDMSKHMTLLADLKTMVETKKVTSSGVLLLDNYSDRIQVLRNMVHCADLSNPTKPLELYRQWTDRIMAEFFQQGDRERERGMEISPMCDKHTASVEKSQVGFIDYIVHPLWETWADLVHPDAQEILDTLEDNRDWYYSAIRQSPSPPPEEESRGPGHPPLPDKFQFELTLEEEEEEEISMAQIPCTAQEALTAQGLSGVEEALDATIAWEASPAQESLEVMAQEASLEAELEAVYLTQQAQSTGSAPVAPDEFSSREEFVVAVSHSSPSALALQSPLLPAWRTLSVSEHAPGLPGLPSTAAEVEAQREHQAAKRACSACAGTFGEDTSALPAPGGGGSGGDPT

`CN(C)C(=N)N=C(N)N` [metformin]: the “serum glucose levels relative to vehicle control” value in test [1] was “significant decrease”.

As for `CC(C)c1c(C(=O)Nc2ccccc2)c(-c2ccccc2)c(-c2ccc(F)cc2)n1CC[C@@H](O)C[C@@H](O)CC(=O)O` [atorvastatin], the “effect on triglycerides” value in test [2] is reported as “did not significantly reduce triglycerides; also recorded: did not display a significant decreasing effect on triglyceride levels”.

For the molecule `N#C/C(=C\CO[C@@H]1O[C@H](CO)[C@@H](O)[C@H](O)[C@H]1O)COC(=O)/C=C/c1ccc(O)c(O)c1` [Ribetril A, (E)-(E)-2-cyano-4-(((2R,3R,4S,5S,6R)-3,4,5-trihydroxy-6-(hydroxymethyl)tetrahydro-2H-pyran-2-yl)oxy)but-2-en-1-yl 3-(3,4-dihydroxyphenyl)acrylate], the entries for the “times lower IC-50 as compared to Ribetril B” value on PDE5A, on PDE4A1A and on IkappaB kinase β (IKK-β) were 3 times, 5 times and 48 times, respectively. Further, the “times lower IC-50 as compared to Ribetril C” value is 8 times at PDE5A, 20 times on PDE4A1A and 118 times at IkappaB kinase β (IKK-β).

For the origin of these results see US20160184338A1, “Bioactive Alkaloid Compositions and Their Medical Uses” (Asiros A/S, priority 2013, published 2016).
